What was measured:
Adenosine A2 receptor = Adenosine A2 receptor (Rattus norvegicus, UniProt P29276+P30543); test: Binding affinity towards adenosine A2 receptor was determined using radioligand [3H]NECA in rat brain striatum at 25 degree C; format: tissue-based
Adenosine receptor A1 = molecular target: T1, Adenosine receptor A1 (Rattus norvegicus, UniProt P25099); test: Binding affinity towards adenosine A1 receptor was determined using radioligand [3H]CHA in whole rat brain membranes at 25 degree C; format: cell membranes
T1 sequence (P25099 whole entry): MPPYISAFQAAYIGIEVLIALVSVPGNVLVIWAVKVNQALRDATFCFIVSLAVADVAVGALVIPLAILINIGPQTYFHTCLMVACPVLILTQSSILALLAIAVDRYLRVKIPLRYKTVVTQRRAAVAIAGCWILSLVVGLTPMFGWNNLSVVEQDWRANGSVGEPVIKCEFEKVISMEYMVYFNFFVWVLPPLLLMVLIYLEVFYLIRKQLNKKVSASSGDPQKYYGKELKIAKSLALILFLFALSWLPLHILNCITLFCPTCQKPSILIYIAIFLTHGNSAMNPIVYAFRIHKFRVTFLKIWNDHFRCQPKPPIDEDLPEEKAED

[1] = molecular target: Adenosine receptors; A1 & A2 (Rattus norvegicus) (UniProt P29276+P25099+P30543); test: Selectivity as ratio of Ki against A2 and A1 receptors; format: protein assay

| Ki (Adenosine A2 receptor) [µM] | Ki (Adenosine receptor A1) [µM] | Ratio [1] | SMILES |
| --- | --- | --- | --- |
| 1.23 | – | – | CCCn1c(=O)c2nc(C(CC)Cc3ccccc3)[nH]c2n(CCC)c1=O (centres undefined) |
| 10.3 | – | – | CCCn1c(=O)c2nc(C3CCc4ccccc4C3)[nH]c2n(CCC)c1=O (centres undefined) |
| 8.35 | – | – | CCCn1c(=O)c2nc(C3Cc4ccccc4C3)[nH]c2n(CCC)c1=O |
| 7.5 | 0.136 | 55 | CCCn1c(=O)c2nc([C@@H](CC)c3ccccc3)[nH]c2n(CCC)c1=O |
| 4.9 | – | – | CCCn1c(=O)c2nc(C(C)c3ccccc3)[nH]c2n(CCC)c1=O (centres undefined) |
| 4.22 | – | – | CCCn1c(=O)c2nc([C@H](C)c3ccccc3)[nH]c2n(CCC)c1=O |
| 12.9 | – | – | CCCn1c(=O)c2nc([C@@H](C)c3ccccc3)[nH]c2n(CCC)c1=O |
| 3.51 | – | 153 | CCCn1c(=O)c2nc([C@H](CC)c3ccccc3)[nH]c2n(CCC)c1=O |
| 1.74 | – | 18 | CCCn1c(=O)c2nc(CC(C)c3ccccc3)[nH]c2n(CCC)c1=O (centres undefined) |
| 2.72 | – | – | CCCn1c(=O)c2nc([C@H]3CCC[C@@H]3c3ccccc3)[nH]c2n(CCC)c1=O |
| 0.61 | – | – | CCCC(Cc1ccccc1)c1nc2c(=O)n(CCC)c(=O)n(CCC)c2[nH]1 (centres undefined) |
| 3.21 | 0.0335 | 95 | CCCn1c(=O)c2nc(C(CC)c3ccccc3)[nH]c2n(CCC)c1=O (centres undefined) |
| 12.8 | – | – | CCCn1c(=O)c2nc(C(CO)Cc3ccccc3)[nH]c2n(CCC)c1=O (centres undefined) |

From ChEMBL document CHEMBL1126552 (J Med Chem, 1993)
